System: Trachea and lungs (ovalbumin-sensitized guinea pig tissue, antigen challenge)
Experiment: modified Shultz-Dale procedure: inhibition of antigen-induced contraction of isolated trachea and lung from ovalbumin-immunized guinea pigs
Type: cell-based
Conditions: 3 × 10^-5 M, isolated guinea pig tissue (trachea/lung not distinguished), antigen challenge 10 min after drug; for inhibition at 30 µM: Cavia porcellus, 10 min
Procedure: The compounds of the invention display antiallergic properties when tested by the following procedure [modification of Shultz-Dale procedure, Agents and Actions, 8, 171 (1978)]: Guinea pigs, after one week environmental stabilization, are immunized IP with 1 mg crude ovalbumin (OA) in 1 ml saline with 50% complete Freund's Adjuvant (CFA). Twenty-one days later animals are killed by a blow to the head. Trachea and lungs are removed and placed in Tyrode's solution, pH 7.4, aerated with 5% CO2 in O2.
Trachea: Connective and vascular tissue are removed and a wooden stick is inserted in the lumen. One end of the trachea is fixed with a pin. The stick is held against a surgical blade and rotated in a helical manner. Spirals formed are cut into two lengths, each containing two or more bands of transverse strips of tracheal muscle. The tissue is attached to transducers and maintained at 5 g tension. Sensitivity of the preamplifier is 2.0 mv/cm and of the amplifier, 0.02 mv/cm, with calibration of 20 mg force displacement per mm. After 45 minutes equilibration, the tissue is challenged with antigen.
Lung: The heart and lung are removed as a unit and the lung is perfused with buffer by the spontaneously beating heart for several minutes. Distal strips of lung from the diaphragmatic lobe approximately 0.3 cm wide and 3 cm long are removed and attached to transducers. Preload is 0.3 g of tension with sensitivity at 0.02 mv/cm on the amplifier and 0.5 mv/cm on the preamp and calibration of 1 mm=5 mg force displacement.
Test Design for Evaluation of Drugs: All tissues are challenged repetitively with the same concentration of antigen. After each concentration, the tissue is washed and allowed to stabilize. The original baseline tension is reestablished before the next challenge. Control contractions in lung must develop a minimum of 10 mg and in trachea, a minimum of 40 mg tension above baseline. When the contractions are reproducible, drug is introduced. Drug effects of baseline are monitored. Ten minutes later, after readjustment to baseline tension as indicated by consecutive reading one minute apart, tissue is again challenged with antigen. The concentration is monitored for at least 15 minutes and the tissue is washed free of antigen and drug. […] Tissues are not used again. If inhibition takes place, a final antigen challenge is repeated to establish that the tissue is reactive to antigen.

SMILES | inhibition at 30 µM [%] | % Inhibition [%]
CCOc1c(C(=O)O)oc2c3cc(OC)ccc3n(-c3ccccc3)c12 [CH3 O, C6 H5, C2 H5, COOH, 3-Ethoxy-7-methoxy-4-phenyl-4H-furo[3,2-b]indole-2-carboxylic acid] | 100 | 
CCOc1c(C(=O)Nc2nnn[nH]2)oc2c3cc(OC)ccc3n(-c3ccccc3)c12 [CH3 O, C6 H5, C2 H5,, 3-Ethoxy-7-methoxy-4-phenyl-N-(1H-tetrazol-5-yl)-4H-furo[3,2-b]indole-2-carboxamide] | 100 | 
COc1ccc2c(c1)c1oc(C(=O)O)c(OC)c1n2-c1ccccc1 [CH3 O, C6 H5, CH3, COOH, 3,7-Dimethoxy-4-phenyl-4H-furo[3,2-b]indole-2-carboxylic acid] | 100 | 
COc1ccc2c(c1)c1oc(-c3nnn[nH]3)c(OC)c1n2-c1ccccc1 [CH3 O, C6 H5, CH3,, 3,7-Dimethoxy-4-phenyl-2-(1H-tetrazol-5-yl)-4H-furo[3,2-b]indole] | 100 | 
COc1ccc2c(c1)c1oc(C(=O)Nc3nnn[nH]3)c(OC)c1n2-c1ccccc1 [CH3 O, C6 H5, CH3,, 3,7-Dimethoxy-4-phenyl-N-(1H-tetrazol-5-yl)-4H-furo[3,2-b]indole-2-carboxamide] | 100 | 
CCOc1c(C(=O)O)oc2c3ccccc3n(-c3ccccc3)c12 [H, C6 H5, C2 H5, COOH, 3-Ethoxy-4-phenyl-4H-furo[3,2-b]indole-2-carboxylic acid] | 100 | 
CCOc1c(-c2nnn[nH]2)oc2c3ccccc3n(-c3ccccc3)c12 [H, C6 H5, C2 H5,, 3-Ethoxy-4-phenyl-2(1H-tetrazol-5-yl)-4H-furo[3,2-b]indole] | 100 | 
CCOc1c(C(=O)Nc2nnn[nH]2)oc2c3ccccc3n(-c3ccccc3)c12 [H, C6 H5, C2 H5,, 3-Ethoxy-4-phenyl-N(1H-tetrazol-5-yl)-4H-furo[3,2-b]-indole-2-carboxamide] |  | 100
COc1c(C(=O)O)oc2c3ccccc3n(-c3ccccc3)c12 [H, C6 H5, CH3, COOH, 3-Methoxy-4-phenyl-4H-furo[3,2-b]indole-2-carboxylic acid] | 100 | 
COc1c(C(=O)Nc2nnn[nH]2)oc2c3ccccc3n(-c3ccccc3)c12 [H, C6 H5, CH3,, 3-Methoxy-4-phenyl-N-(1H-tetrazol-5-yl)-4H-furo[3,2-b]indole-2-carboxamide] | 100 | 
COc1c(-c2nnn[nH]2)oc2c3ccccc3n(C)c12 [H, CH3, CH3,, 3-Methoxy-4-methyl-2-(1H-tetrazol-5-yl)-4H-furo[3,2-b]indole] | 26 | 
COc1c(C(=O)Nc2nnn[nH]2)oc2c3ccccc3n(C)c12 [H, CH3, CH3,, 3-Methoxy-4-methyl-N-(1H-tetrazol-5-yl)-4H-furo[3,2-b]indole-2-carboxamide] | 38 | 

— US4503236A, “Antiallergic 4Hfuro[3,2-b]indoles” (Warner-Lambert Company, priority 1983, dated 1985)
